In ChEMBL document CHEMBL5154709, “Tetrazole derivatives bearing benzodiazepine moiety-synthesis and action mode against virulence of Candida albicans” (Eur J Med Chem, 2022):
In brackets after ≈: the same amount, converted by molar mass.

Experiments:
Candida albicans [1] = experiment: Antifungal activity against Candida albicans SC5314 assessed as inhibition of fungal growth at 0.25 ug/ml incubated for 48 hrs by M27-A3 based microdilution method relative to control; assay type: functional
Candida albicans [2] = experiment: Antifungal activity against Candida albicans SC5314 assessed as inhibition of fungal growth at 4 ug/ml incubated for 48 hrs by M27-A3 based microdilution method relative to control; assay type: functional
Candida albicans [3] = experiment: Antifungal activity against Candida albicans SC5314 assessed as inhibition of fungal growth at 16 ug/ml incubated for 18 hrs by M27-A3 based microdilution method relative to control; assay type: functional
Candida albicans [4] = experiment: Antifungal activity against Candida albicans SC5314 assessed as inhibition of fungal growth at 0.03125 ug/ml incubated for 48 hrs by M27-A3 based microdilution method relative to control; assay type: functional
Candida albicans [5] = experiment: Antifungal activity against Candida albicans SC5314 assessed as inhibition of fungal growth at 2 ug/ml incubated for 48 hrs by M27-A3 based microdilution method relative to control; assay type: functional
Candida albicans [6] = experiment: Antifungal activity against Candida albicans SC5314 assessed as inhibition of fungal growth at 0.125 ug/ml incubated for 48 hrs by M27-A3 based microdilution method relative to control; assay type: functional
Candida albicans [7] = experiment: Antifungal activity against Candida albicans SC5314 assessed as inhibition of fungal growth at 8 ug/ml incubated for 48 hrs by M27-A3 based microdilution method relative to control; assay type: functional
Candida albicans [8] = experiment: Antifungal activity against Candida albicans SC5314 assessed as inhibition of fungal growth at 2 ug/ml incubated for 18 hrs by M27-A3 based microdilution method relative to control; assay type: functional
Candida albicans [9] = experiment: Antifungal activity against Candida albicans SC5314 assessed as inhibition of fungal growth at 0.125 ug/ml incubated for 18 hrs by M27-A3 based microdilution method relative to control; assay type: functional
Candida albicans [10] = experiment: Antifungal activity against Candida albicans SC5314 assessed as inhibition of fungal growth at 0.5 ug/ml incubated for 18 hrs by M27-A3 based microdilution method relative to control; assay type: functional
Candida albicans [11] = experiment: Antifungal activity against Candida albicans SC5314 assessed as inhibition of fungal growth at 1 ug/ml incubated for 48 hrs by M27-A3 based microdilution method relative to control; assay type: functional
Candida albicans [12] = experiment: Antifungal activity against Candida albicans SC5314 assessed as inhibition of fungal growth at 0.5 ug/ml incubated for 48 hrs by M27-A3 based microdilution method relative to control; assay type: functional
Candida albicans [13] = experiment: Antifungal activity against Candida albicans SC5314 assessed as inhibition of fungal growth at 4 ug/ml incubated for 18 hrs by M27-A3 based microdilution method relative to control; assay type: functional
Candida albicans [14] = experiment: Antifungal activity against Candida albicans SC5314 assessed as inhibition of fungal growth at 0.0625 ug/ml incubated for 18 hrs by M27-A3 based microdilution method relative to control; assay type: functional
Candida albicans [15] = experiment: Antifungal activity against Candida albicans SC5314 assessed as inhibition of fungal growth at 0.25 ug/ml incubated for 18 hrs by M27-A3 based microdilution method relative to control; assay type: functional
Candida albicans [16] = experiment: Antifungal activity against Candida albicans SC5314 assessed as inhibition of fungal growth at 16 ug/ml incubated for 48 hrs by M27-A3 based microdilution method relative to control; assay type: functional
Candida albicans [17] = experiment: Antifungal activity against Candida albicans SC5314 assessed as inhibition of fungal growth at 0.03125 ug/ml incubated for 18 hrs by M27-A3 based microdilution method relative to control; assay type: functional
Candida albicans [18] = experiment: Antifungal activity against Candida albicans SC5314 assessed as inhibition of fungal growth at 1 ug/ml incubated for 18 hrs by M27-A3 based microdilution method relative to control; assay type: functional
Candida albicans [19] = experiment: Antifungal activity against Candida albicans SC5314 assessed as inhibition of fungal growth at 8 ug/ml incubated for 18 hrs by M27-A3 based microdilution method relative to control; assay type: functional
Candida albicans [20] = experiment: Antifungal activity against Candida albicans SC5314 assessed as inhibition of fungal growth at 0.0625 ug/ml incubated for 48 hrs by M27-A3 based microdilution method relative to control; assay type: functional
Candida albicans [21] = experiment: Antifungal activity against Candida albicans assessed as inhibition of fungal growth measured after 48 hrs by M27-A3 based broth microdilution; assay type: functional
[22] = Toxicity in Galleria mellonella larvae assessed as melanization of larvae at 0.23 ug/ml measured every 24 hrs upto 5 days relative to control; settings: 120 h, at 0.23 µg/mL, time < 5 day
Candida albicans [23] = experiment: Antifungal activity against Candida albicans assessed as inhibition of fungal growth measured after 48 hrs in presence of exogenous ergosterol by M27-A3 based broth microdilution; assay type: functional
[24] = Toxicity in Galleria mellonella larvae assessed as melanization of larvae at 0.05 ug/ml measured every 24 hrs upto 5 days relative to control; settings: 120 h, at 0.05 µg/mL, time < 5 day

SMILES | inhibition at 0.25 µg/mL (Candida albicans [1]) [%] | inhibition at 4 µg/mL (Candida albicans [2]) [%] | inhibition at 16 µg/mL (Candida albicans [3]) [%] | inhibition at 0.03125 µg/mL (Candida albicans [4]) [%] | inhibition at 2 µg/mL (Candida albicans [5]) [%] | inhibition at 0.125 µg/mL (Candida albicans [6]) [%] | inhibition at 8 µg/mL (Candida albicans [7]) [%] | inhibition at 2 µg/mL (Candida albicans [8]) [%] | inhibition at 0.125 µg/mL (Candida albicans [9]) [%] | inhibition at 0.5 µg/mL (Candida albicans [10]) [%] | inhibition at 1 µg/mL (Candida albicans [11]) [%] | inhibition at 0.5 µg/mL (Candida albicans [12]) [%] | inhibition at 4 µg/mL (Candida albicans [13]) [%] | inhibition at 0.0625 µg/mL (Candida albicans [14]) [%] | inhibition at 0.25 µg/mL (Candida albicans [15]) [%] | inhibition at 16 µg/mL (Candida albicans [16]) [%] | inhibition at 0.03125 µg/mL (Candida albicans [17]) [%] | inhibition at 1 µg/mL (Candida albicans [18]) [%] | inhibition at 8 µg/mL (Candida albicans [19]) [%] | inhibition at 0.0625 µg/mL (Candida albicans [20]) [%] | further results
O=C1CN=C(c2ccccc2Br)c2cc(F)ccc2N1CCCn1nnc(-c2ccccc2)n1 | 99 | 98.9 | 98.5 | 100 | 98.4 | 98.4 | 98.5 | 99.6 | 99.8 | 99.5 | 98.9 | 99.3 | 99.6 | 99.4 | 99.8 | 98.4 | 100 | 99.4 | 98.4 | 98.6 | 
O=C1CN=C(c2ccccc2Br)c2cc(F)ccc2N1 | 99.1 | 99.2 | 98.9 | 99.1 | 99.1 | 99.1 | 99.1 | 99 | 99.1 | 99.2 | 99.2 | 99.2 | 99.2 | 98.7 | 98.9 | 99.1 | 99.1 | 99 | 99.3 | 98.7 | 
COc1ccc(-n2nnnc2SCCCCl)cc1 | 99.9 | 99.8 | 99.9 | 99.7 | 99.8 | 99.9 | 99.8 | 100 | 99.9 | 99.9 | 99.8 | 99.7 | 99.8 | 99.9 | 100 | 99.8 | 99.8 | 99.9 | 99.8 | 99.8 | 
CCC(C)n1ncn(-c2ccc(N3CCN(c4ccc(OCC5COC(Cn6cncn6)(c6ccc(Cl)cc6Cl)O5)cc4)CC3)cc2)c1=O (centres undefined) [ITRACONAZOLE] |  |  |  |  |  |  |  |  |  |  |  |  |  |  |  |  |  |  |  |  | MIC (Candida albicans [21]): 0.32 µg/mL (≈ 0.453 µM); Activity [22]: 13%; MIC (Candida albicans [23]): 0.5 µg/mL
O=C1CN=C(c2ccccc2Br)c2cc(F)ccc2N1CCCSc1nnnn1-c1ccccc1 | 99.7 | 99.8 | 99.8 | 99.9 | 99.7 | 99.8 | 99.8 | 99.8 | 99.9 | 99.9 | 99.7 | 99.8 | 99.9 | 99.7 | 99.8 | 99.8 | 100 | 99.8 | 99.9 | 99.7 | 
COc1ccc(-n2nnnc2SCCCN2C(=O)CN=C(c3ccccc3Br)c3cc(F)ccc32)cc1 | 98.6 | 98.8 | 98.1 | 98.8 | 98.8 | 98.9 | 98.7 | 98.7 | 98.8 | 98.7 | 98.9 | 98.8 | 98.8 | 98.7 | 98.5 | 98.5 | 98.8 | 98.8 | 98.6 | 98.8 | 
C[C@@H]1[C@H](O)[C@@H](C)/C=C/C=C/C=C/C=C/C=C/C=C/C=C/[C@H](O[C@@H]2O[C@H](C)[C@@H](O)[C@H](N)[C@@H]2O)C[C@@H]2O[C@](O)(C[C@@H](O)C[C@@H](O)[C@H](O)CC[C@@H](O)C[C@@H](O)CC(=O)O[C@H]1C)C[C@H](O)[C@H]2C(=O)O [AMPHOTERICIN B] | 100 | 100 | 100 | 100 | 100 | 100 | 100 | 100 | 100 | 100 | 100 | 100 | 100 | 100 | 100 | 100 | 100 | 100 | 100 | 100 | Activity [24]: 10%
Cc1ccc(-c2nnn(CCCN3C(=O)CN=C(c4ccccc4Br)c4cc(F)ccc43)n2)cc1 | 98.2 | 95.4 | 100 | 100 | 96.4 | 97.2 | 97.6 | 98.1 | 98.5 | 92.3 | 95 | 95.8 | 94.7 | 99.2 | 97.8 | 95.4 | 100 | 93.8 | 100 | 96.5 | 
ClCCCSc1nnnn1-c1ccccc1 | 98.9 | 98.9 | 98.7 | 98.9 | 98.6 | 98.8 | 98.8 | 98.5 | 98.6 | 98.3 | 98.6 | 98.4 | 98.8 | 98.6 | 98.8 | 98.9 | 98.8 | 98.5 | 98.7 | 98.8 | 
